According to BindingDB's records for doi:10.1021/jm00055a002 (Eli Lilly, 1993):
Where a SMILES comes first, the peptide text is derived from it. [ ]: non-standard residue; d: D form. The star is where a group is joined. dHpg = N[C@@H](C(=O)O)c1ccc(O)cc1; Boc = CC(C)(C)OC(=O)*

Tests used:
[1] = biological target: Tissue-type plasminogen activator (Homo sapiens) (UniProt P00750); assay: Inhibitory activity against tissue-type plasminogen activator
[2] = biological target: Tissue-type plasminogen activator (Homo sapiens) (UniProt P00750); assay: Compound was tested in vitro for inhibitory activity against t-PA (tissue plasminogen activator)

Sequence of Tissue-type plasminogen activator (Homo sapiens) (P00750 whole entry, looked up): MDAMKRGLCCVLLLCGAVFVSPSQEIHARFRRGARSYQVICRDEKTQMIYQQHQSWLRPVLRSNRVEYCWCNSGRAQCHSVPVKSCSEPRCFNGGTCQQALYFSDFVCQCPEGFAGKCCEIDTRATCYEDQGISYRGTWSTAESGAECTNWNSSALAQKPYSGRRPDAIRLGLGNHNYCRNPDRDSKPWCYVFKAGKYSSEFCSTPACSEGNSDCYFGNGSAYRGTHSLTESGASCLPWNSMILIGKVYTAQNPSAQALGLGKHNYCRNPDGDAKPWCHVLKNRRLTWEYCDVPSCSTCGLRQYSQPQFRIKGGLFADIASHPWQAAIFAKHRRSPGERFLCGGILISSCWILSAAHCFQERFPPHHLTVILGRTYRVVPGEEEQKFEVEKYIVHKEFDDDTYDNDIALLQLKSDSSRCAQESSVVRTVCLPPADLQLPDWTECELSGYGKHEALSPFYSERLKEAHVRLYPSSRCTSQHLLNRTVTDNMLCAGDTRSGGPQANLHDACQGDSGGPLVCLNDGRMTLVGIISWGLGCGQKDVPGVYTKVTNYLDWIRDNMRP

SMILES | IC50 [2] [µM] | IC50 [1] [µM]
CC(C)(C)OC(=O)N[C@@H](C(=O)N1CCC[C@H]1C(=O)N[C@H](C=O)CCCN=C(N)N)c1ccc(O)cc1 [[2-[2-(1-Formyl-4-guanidino-butylcarbamoyl)-pyrrolidin-1-yl]-1-(4-hydroxy-phenyl)-2-oxo-ethyl]-carbamic acid tert-butyl ester] (Boc-[dHpg]-Pro-Arg-aldehyde) |  | 16
CC(C)(C)OC(=O)N[C@@H](C(=O)N1CCC[C@H]1C(=O)N[C@H](C=O)CCCN=C(N)N)c1ccc(F)cc1 [{1-(4-Fluoro-phenyl)-2-[2-(1-formyl-4-guanidino-butylcarbamoyl)-pyrrolidin-1-yl]-2-oxo-ethyl}-carbamic acid tert-butyl ester] | 18 | 
CC(C)(C)OC(=O)N[C@H](C(=O)N1CCC[C@H]1C(=O)N[C@H](C=O)CCCN=C(N)N)c1ccc(F)cc1 [{1-(4-Fluoro-phenyl)-2-[2-(1-formyl-4-guanidino-butylcarbamoyl)-pyrrolidin-1-yl]-2-oxo-ethyl}-carbamic acid tert-butyl ester] | 91 | 
N=C(N)NCCC[C@@H](C=O)NC(=O)[C@@H]1CCCN1C(=O)C1CCc2ccccc2N1 (stereo not given in full) [1-(1,2,3,4-Tetrahydro-quinoline-2-carbonyl)-pyrrolidine-2-carboxylic acid (1-formyl-4-guanidino-butyl)-amide] |  | 660
CO[C@H](C(=O)N1CCC[C@H]1C(=O)NC(C=O)CCCNC(=N)N)c1ccccc1 (stereo not given in full) [1-(2-Methoxy-2-phenyl-acetyl)-pyrrolidine-2-carboxylic acid (1-formyl-4-guanidino-butyl)-amide] | 860 | 
CN[C@@H](C(=O)N1CCC[C@H]1C(=O)N[C@H](C=O)CCCNC(=N)N)c1ccccc1 [(S)-1-((R)-2-Methylamino-2-phenyl-acetyl)-pyrrolidine-2-carboxylic acid ((S)-1-formyl-4-guanidino-butyl)-amide] | 42 | 

Now from value to compound, other results behind:

IC50 [2] [µM] | SMILES | IC50 [1] [µM]
31 | CC(C)(C)OC(=O)NC(C(=O)N1CCC[C@H]1C(=O)NC(C=O)CCCNC(=N)N)c1ccc(Cl)c(Cl)c1 (stereo not given in full) [{1-(3,4-Dichloro-phenyl)-2-[2-(1-formyl-4-guanidino-butylcarbamoyl)-pyrrolidin-1-yl]-2-oxo-ethyl}-carbamic acid tert-butyl ester] | 
12 | CC(C)(C)OC(=O)N[C@@H](C(=O)N1CCC[C@H]1C(=O)NC(C=O)CCCNC(=N)N)c1ccc2ccccc2c1 (stereo not given in full) [{2-[2-(1-Formyl-4-guanidino-butylcarbamoyl)-pyrrolidin-1-yl]-1-naphthalen-2-yl-2-oxo-ethyl}-carbamic acid tert-butyl ester] | 
15 | CC(C)(C)OC(=O)NC(C(=O)N1CCC[C@H]1C(=O)NC(C=O)CCCNC(=N)N)c1cccc(C(F)(F)F)c1 (stereo not given in full) [[2-[2-(1-Formyl-4-guanidino-butylcarbamoyl)-pyrrolidin-1-yl]-2-oxo-1-(3-trifluoromethyl-phenyl)-ethyl]-carbamic acid tert-butyl ester] | 
20 | CC(C)(C)OC(=O)N[C@@H](C(=O)N1CCC[C@H]1C(=O)NC(C=O)CCCNC(=N)N)c1cccc2ccccc12 (stereo not given in full) [{2-[2-(1-Formyl-4-guanidino-butylcarbamoyl)-pyrrolidin-1-yl]-1-naphthalen-1-yl-2-oxo-ethyl}-carbamic acid tert-butyl ester] | 
